Data reported in patent US10945983B2, “Oleocanthal isolation and cancer treatment” (Board of Supervisors for the University of Louisiana System, priority 2016, dated 2021).
Like-named read-outs stand apart in the source and are kept apart here.

Key:
[1] = system: MDA-MB-231/GFP human breast cancer cells; assay: Orthotopic TNBC xenograft model in athymic mice; assay type: in vivo, athymic nude mice; details: intraperitoneal 5 mg/kg, 3× per week; previous experiments of the inventors
Method: MDA-MB-231/GFP human breast cancer cells were cultured and resuspended in serum-free DMEM medium (20 μl). After anesthesia, cell suspensions (1×10^6 cells/20 μl) were inoculated subcutaneously into the second mammary gland fat pad just beneath the nipple of each athymic nude mouse to generate orthotopic breast tumors. […] FIG. 20 is a line chart showing tumor size was evaluated periodically during treatment at indicated days postinoculation. Tumor volume (V) was calculated by V=L/2×W^2, where L was the length and W was the width of tumors. […]
Turning to FIGS. 20-23, in the current disclosure, as a future dietary candidate OC nano-emulsion oral in vivo antitumor efficacy was assessed using the same mouse model using MDA-MB-231/GFP human BC cells. […] The mice were monitored by measuring body weight, and observation of their physical behavior throughout the study. […]
MDA-MB-231/GFP human breast cancer cells were harvested, pelleted by centrifugation at 850×g for 5 minutes, and re-suspended in sterile serum-free DMEM medium (20 μL). […] The mice were monitored by measuring tumor volume, body weight, and clinical observation. Tumor volume (V) was calculated by V=L/2×W^2, where L was the length and W was the width of tumors. […]

BT-474 human BC cells = details: for BT-474 tumor weight inhibition vs vehicle: 3×/week, intraperitoneal, 60 days; for BT-474 tumor growth inhibition: 5×/week
Method: 5×10^6 cells/20 μL BT-474 human BC cells were sc inoculated into second mammary gland fat pad of athymic nude (Foxn1^nu/Foxn^1). […] Top panels show photographs of representative intact animal for each group. Bottom panels show photographs of excised primary tumor at experiment end.
Turning to FIGS. 28A-32, the HER2+ BC represents >15% of total BC cases with aggressive metastatic and highly resistant profile.

HER2+-ER+BT-474 BC cells = assay: BT-474 recurrence after neoadjuvant lapatinib regimen; assay type: in vivo, athymic nude mice; details: OC 10 mg/kg, ip, 3×/week, additional 54 days after lapatinib 50 mg/kg for 60 days
Method: FIG. 36A is a photograph of representative animals of vehicle control group and two photographs showing circled tumor developed over the additional 54 days period. FIG. 36B is two photographs of representative animals that completed 60 days oral lapatinib 50 mg/kg group and two photographs of developed circled tumors after additional 54 days. FIG. 36C is two photographs of representative animals of 10 mg OC 1p, 3×/week group, and two photographs showing no tumor developed over the additional 54 days regimen.
(§1) The correlation between c-Met/HGF pathway and tumor resistance is documented. […] This was consistent with the OC c-Met inhibitory activity and previously shown growth and recurrence effects.

TNBC MDA-MB-231 BC cells = assay: TNBC recurrence after neoadjuvant paclitaxel; assay type: in vivo; details: 10 mg/kg oral daily
From the text: as §1

mTOR = mTOR (Homo sapiens, UniProt P42345); details: read-out: IC50 mTOR enzymatic activity; cited from earlier work
BT-474 tumor recurrence = assay: HER2+/ER+ BT-474 recurrence after primary tumor surgical excision; details: for recurrence tumor weight inhibition: additional 54 days after excision
Method: Female athymic nude mice used in previous experiment were anesthetized prior to the surgical excision procedure with ip ketamine/xylazine combination (100 mg/kg/15 mg/kg). 15-20 min after administering the anesthetic animal reflexes tested by gently tapping the hind legs with sterile syringe needle and finally their tumors were surgically excised and each wound was closed by one or two stitches. Ketoprofen, 1 mg/kg was used 12 hours before and 12 h after surgery for effective analgesia. Ophthalmic lubricant was used during the surgery to prevent corneal drying. Bupivicaine (0.25%, 1-2 drops), twice daily, was used topically at the excision wound site, local infiltration along surgery site during closure with a maximum dose of 2 mg/kg.

SMILES | tumor growth inhibition [1] [%] | BT-474 tumor weight inhibition vs vehicle (BT-474 human BC cells; 5 mg/kg) [%] | BT-474 tumor weight inhibition vs vehicle (BT-474 human BC cells; 10 mg/kg) [%] | tumor recurrence after lapatinib regimen (HER2+-ER+BT-474 BC cells) | recurrence and chemoresistance after neoadjuvant paclitaxel (TNBC MDA-MB-231 BC cells) | IC50 (mTOR) [nM] | recurrence tumor weight inhibition (BT-474 tumor recurrence; 10 mg/kg, ip, 3×/week) [%] | BT-474 tumor growth inhibition (BT-474 human BC cells; 12.5 mg oral dose) [%] | BT-474 tumor growth inhibition (BT-474 human BC cells; 50 mg oral dose) [%] | recurrence tumor weight inhibition (BT-474 tumor recurrence; 50 mg/kg, 5×/week oral) [%] | body weight (BT-474 tumor recurrence; lapatinib 50 mg/kg, additional 54 days)
C/C=C(/C=O)[C@@H](CC=O)CC(=O)OCCc1ccc(O)cc1 [OC, (-)-Oleocanthal] | 65 | 88.2 | 93.2 | inhibited the HER2+-ER+BT-474 BC cells recurrence | effectively inhibited in vivo recurrence and reversed chemoresistance | 708 | 86.2 |  |  |  | 
CS(=O)(=O)CCNCc1ccc(-c2ccc3ncnc(Nc4ccc(OCc5cccc(F)c5)c(Cl)c4)c3c2)o1 [lapatinib, reference compound] |  |  |  |  |  |  |  | 85.9 | 89.9 | 81.4 | significant weight decrease
